Assay results taken from ChEMBL document CHEMBL1697781, “Assessment of the health effects of chemicals in humans: II. Construction of an adverse effects database for QSAR modeling” (Curr Drug Discov Technol, 2004).

Tested on: Hepatotoxicity
Assay: FDA HLAED, serum glutamic pyruvic transaminase (SGPT) increase
Conditions: human
Wherever GGT Increase - Index Value is given: reference of the scale not given here.
Wherever LDH Increase - Index Value is given: reference of the scale not given here.

Row | Structure (SMILES) | SGPT Increase - Activity Score | SGPT Increase - Index Value | SGPT Increase - Number of Reports
1 | CC(S)C(=O)NCC(=O)O (configuration not stated) [TIOPRONIN] | Inactive | 0 | < 4
2 | Clc1ccc2nsnc2c1NC1=NCCN1 [TIZANIDINE] | Active | 24.8 | < 4
3 | Cc1cccc(C)c1NC(=O)C(C)N (configuration not stated) [TOCAINIDE] | Inactive | 2.2 | >= 4
4 | CC1(C)O[C@@H]2[C@@H](CO[C@@]3(COS(N)(=O)=O)OC(C)(C)O[C@@H]23)O1 [TOPIRAMATE] | Inactive | 0 | < 4
5 | CC[C@@]1(O)C(=O)OCc2c1cc1n(c2=O)Cc2cc3c(CN(C)C)c(O)ccc3nc2-1 [TOPOTECAN] | Inactive | 0 | < 4
6 | Cc1cccc(Nc2ccncc2S(=O)(=O)NC(=O)NC(C)C)c1 [TORSEMIDE] | Inactive | 0.5 | < 4
7 | COc1cccc(C2(O)CCCCC2CN(C)C)c1 (configuration not stated) [TRAMADOL] | Inactive | 0.8 | >= 4
8 | CCOC(=O)[C@H](CCc1ccccc1)N[C@@H](C)C(=O)N1[C@H](C(=O)O)C[C@H]2CCCC[C@@H]21 [TRANDOLAPRIL] | Marginally Active | 10.5 | < 4
9 | O=c1n(CCCN2CCN(c3cccc(Cl)c3)CC2)nc2ccccn12 [TRAZODONE] | Inactive | 0 | < 4

Tested on: Hepatotoxicity
Assay: FDA HLAED, alkaline phosphatase increase
Conditions: human

Row | Structure (SMILES) | Alkaline Phosphatase Increase - Activity Score | Alkaline Phosphatase Increase - Index Value | Alkaline Phosphatase Increase - Number of Reports
10 | CC(S)C(=O)NCC(=O)O (configuration not stated) [TIOPRONIN] | Inactive | 0 | < 4
11 | Clc1ccc2nsnc2c1NC1=NCCN1 [TIZANIDINE] | Inactive | 8.3 | < 4
12 | Cc1cccc(C)c1NC(=O)C(C)N (configuration not stated) [TOCAINIDE] | Inactive | 1.7 | >= 4
13 | CC1(C)O[C@@H]2[C@@H](CO[C@@]3(COS(N)(=O)=O)OC(C)(C)O[C@@H]23)O1 [TOPIRAMATE] | Inactive | 3.5 | < 4
14 | CC[C@@]1(O)C(=O)OCc2c1cc1n(c2=O)Cc2cc3c(CN(C)C)c(O)ccc3nc2-1 [TOPOTECAN] | Inactive | 0 | < 4
15 | Cc1cccc(Nc2ccncc2S(=O)(=O)NC(=O)NC(C)C)c1 [TORSEMIDE] | Inactive | 0 | < 4
16 | COc1cccc(C2(O)CCCCC2CN(C)C)c1 (configuration not stated) [TRAMADOL] | Inactive | 0.1 | < 4
17 | CCOC(=O)[C@H](CCc1ccccc1)N[C@@H](C)C(=O)N1[C@H](C(=O)O)C[C@H]2CCCC[C@@H]21 [TRANDOLAPRIL] | Inactive | 0 | < 4
18 | O=c1n(CCCN2CCN(c3cccc(Cl)c3)CC2)nc2ccccn12 [TRAZODONE] | Inactive | 0.2 | < 4

Tested on: Hepatotoxicity
Assay: FDA HLAED, lactate dehydrogenase (LDH) increase
Conditions: human

Row | Structure (SMILES) | LDH Increase - Activity Score | LDH Increase - Index Value | LDH Increase - Number of Reports
19 | CC(S)C(=O)NCC(=O)O (configuration not stated) [TIOPRONIN] | Inactive | 0 | < 4
20 | Clc1ccc2nsnc2c1NC1=NCCN1 [TIZANIDINE] | Inactive | 8.3 | < 4
21 | Cc1cccc(C)c1NC(=O)C(C)N (configuration not stated) [TOCAINIDE] | Inactive | 1.7 | >= 4
22 | CC1(C)O[C@@H]2[C@@H](CO[C@@]3(COS(N)(=O)=O)OC(C)(C)O[C@@H]23)O1 [TOPIRAMATE] | Inactive | 0 | < 4
23 | CC[C@@]1(O)C(=O)OCc2c1cc1n(c2=O)Cc2cc3c(CN(C)C)c(O)ccc3nc2-1 [TOPOTECAN] | Inactive | 11.6 | < 4
24 | Cc1cccc(Nc2ccncc2S(=O)(=O)NC(=O)NC(C)C)c1 [TORSEMIDE] | Inactive | 0 | < 4
25 | COc1cccc(C2(O)CCCCC2CN(C)C)c1 (configuration not stated) [TRAMADOL] | Inactive | 0.6 | >= 4
26 | CCOC(=O)[C@H](CCc1ccccc1)N[C@@H](C)C(=O)N1[C@H](C(=O)O)C[C@H]2CCCC[C@@H]21 [TRANDOLAPRIL] | Inactive | 0 | < 4
27 | O=c1n(CCCN2CCN(c3cccc(Cl)c3)CC2)nc2ccccn12 [TRAZODONE] | Inactive | 0.3 | < 4

Tested on: Hepatotoxicity
Assay: FDA HLAED, serum glutamic oxaloacetic transaminase (SGOT) increase
Conditions: human

Row | Structure (SMILES) | SGOT Increase - Activity Score | SGOT Increase - Index Value | SGOT Increase - Number of Reports
28 | CC(S)C(=O)NCC(=O)O (configuration not stated) [TIOPRONIN] | Inactive | 0 | < 4
29 | Clc1ccc2nsnc2c1NC1=NCCN1 [TIZANIDINE] | Inactive | 16.5 | < 4
30 | Cc1cccc(C)c1NC(=O)C(C)N (configuration not stated) [TOCAINIDE] | Marginally Active | 3.5 | >= 4
31 | CC1(C)O[C@@H]2[C@@H](CO[C@@]3(COS(N)(=O)=O)OC(C)(C)O[C@@H]23)O1 [TOPIRAMATE] | Inactive | 0 | < 4
32 | CC[C@@]1(O)C(=O)OCc2c1cc1n(c2=O)Cc2cc3c(CN(C)C)c(O)ccc3nc2-1 [TOPOTECAN] | Inactive | 0 | < 4
33 | Cc1cccc(Nc2ccncc2S(=O)(=O)NC(=O)NC(C)C)c1 [TORSEMIDE] | Inactive | 0.5 | < 4
34 | COc1cccc(C2(O)CCCCC2CN(C)C)c1 (configuration not stated) [TRAMADOL] | Inactive | 0.5 | >= 4
35 | CCOC(=O)[C@H](CCc1ccccc1)N[C@@H](C)C(=O)N1[C@H](C(=O)O)C[C@H]2CCCC[C@@H]21 [TRANDOLAPRIL] | Inactive | 7 | < 4
36 | O=c1n(CCCN2CCN(c3cccc(Cl)c3)CC2)nc2ccccn12 [TRAZODONE] | Inactive | 0.3 | < 4

Tested on: Hepatotoxicity
Assay: FDA HLAED, gamma-glutamyl transferase (GGT) increase
Conditions: human

Row | Structure (SMILES) | GGT Increase - Activity Score | GGT Increase - Index Value | GGT Increase - Number of Reports
37 | CC(S)C(=O)NCC(=O)O (configuration not stated) [TIOPRONIN] | Inactive | 0 | < 4
38 | Clc1ccc2nsnc2c1NC1=NCCN1 [TIZANIDINE] | Inactive | 8.3 | < 4
39 | Cc1cccc(C)c1NC(=O)C(C)N (configuration not stated) [TOCAINIDE] | Inactive | 0 | < 4
40 | CC1(C)O[C@@H]2[C@@H](CO[C@@]3(COS(N)(=O)=O)OC(C)(C)O[C@@H]23)O1 [TOPIRAMATE] | Inactive | 0 | < 4
41 | CC[C@@]1(O)C(=O)OCc2c1cc1n(c2=O)Cc2cc3c(CN(C)C)c(O)ccc3nc2-1 [TOPOTECAN] | Inactive | 11.6 | < 4
42 | Cc1cccc(Nc2ccncc2S(=O)(=O)NC(=O)NC(C)C)c1 [TORSEMIDE] | Inactive | 0 | < 4
43 | COc1cccc(C2(O)CCCCC2CN(C)C)c1 (configuration not stated) [TRAMADOL] | Inactive | 0.2 | < 4
44 | CCOC(=O)[C@H](CCc1ccccc1)N[C@@H](C)C(=O)N1[C@H](C(=O)O)C[C@H]2CCCC[C@@H]21 [TRANDOLAPRIL] | Inactive | 0 | < 4
45 | O=c1n(CCCN2CCN(c3cccc(Cl)c3)CC2)nc2ccccn12 [TRAZODONE] | Inactive | 0 | < 4

Tested on: Hepatotoxicity
Assay: FDA HLAED, liver enzyme composite activity
Conditions: human

Row | Structure (SMILES) | Composite Activity - Active | Composite Activity - Marginal | Composite Activity - Score
46 | CC(S)C(=O)NCC(=O)O (configuration not stated) [TIOPRONIN] | 0 | 0 | Inactive
47 | Cc1cccc(C)c1NC(=O)C(C)N (configuration not stated) [TOCAINIDE] | 0 | 1 | Inactive
48 | CC1(C)O[C@@H]2[C@@H](CO[C@@]3(COS(N)(=O)=O)OC(C)(C)O[C@@H]23)O1 [TOPIRAMATE] | 0 | 0 | Inactive
49 | CC[C@@]1(O)C(=O)OCc2c1cc1n(c2=O)Cc2cc3c(CN(C)C)c(O)ccc3nc2-1 [TOPOTECAN] | 0 | 0 | Inactive
50 | Cc1cccc(Nc2ccncc2S(=O)(=O)NC(=O)NC(C)C)c1 [TORSEMIDE] | 0 | 0 | Inactive
51 | COc1cccc(C2(O)CCCCC2CN(C)C)c1 (configuration not stated) [TRAMADOL] | 0 | 0 | Inactive
52 | CCOC(=O)[C@H](CCc1ccccc1)N[C@@H](C)C(=O)N1[C@H](C(=O)O)C[C@H]2CCCC[C@@H]21 [TRANDOLAPRIL] | 1 | 0 | Inactive
53 | O=c1n(CCCN2CCN(c3cccc(Cl)c3)CC2)nc2ccccn12 [TRAZODONE] | 0 | 0 | Inactive

Same assay, conditions: human, Liver

Row | Structure (SMILES) | Composite Activity - Active | Composite Activity - Marginal | Composite Activity - Score
54 | Clc1ccc2nsnc2c1NC1=NCCN1 [TIZANIDINE] | 1 | 0 | Inactive
